The record followed here is the supplement of paper PMC11997997.

Each structure is given as a SMILES string.

Experiment [1] relates to murine bone marrow-derived macrophages. The experiment is described as follows: area under cytotoxicity dose-response curve (AUC (% cytotoxicity x dose, relative)); higher = more cytotoxic. To be noted: duration: 6 days; dose range: 0.13-80 uM, 8 points. An outline of the steps: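 Cytotoxicity is given as the area under the dose–response curve, computed in GraphPad Prism version 10. Primary murine bone marrow-derived macrophages in opaque 384-well plates received an 8-point, 2.5-fold dilution series (final 80–0.13 μM) for 6 days at 37 °C in 5% CO2. Viability was measured by Promega's CellTiter-Glo luminescence assay, with percent cytotoxicity normalised to vehicle and positive control wells.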

The subject of experiment [2] is Mycobacterium tuberculosis CDC1551 (intracellular, in murine BMDM). Description: area under intracellular growth-inhibition dose-response curve (AUC (% inhibition x dose, relative)); higher = more potent. Conditions: duration: 6 days; dose range: 0.13-80 uM, 8 points. An outline of the steps: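 Luciferase-expressing M. tuberculosis CDC1551 was used at multiplicity of infection 1 for 1 h to infect primary murine bone marrow-derived macrophages in 384-well opaque plates, 24 h after seeding. Treatment followed for 6 days with an 8-dose, 2.5-fold series at final concentrations of 80–0.13 μM. GraphPad Prism was used to calculate the area under the growth-inhibition dose–response curve from Bright-Glo luciferin readings normalised to a reference drug control and the lowest-concentration wells.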

With `COc1ccc2nc(C)cc(N/N=C/c3cccc(OC)c3O)c2c1`, the “area under cytotoxicity dose-response curve” value in experiment [1] turned out to be 69. The “area under intracellular growth-inhibition dose-response curve” value in experiment [2] was found to be 124.
Consider `O=C(CSc1ccccc1F)NNC(=O)c1ccncc1`, for which the “area under cytotoxicity dose-response curve” value in experiment [1] is 38.8. In experiment [2], the “area under intracellular growth-inhibition dose-response curve” value came to 230.
On to `COc1ccc(-c2[nH]ncc2/C=N/NC(=O)c2ccncc2)c(OC)c1`, for which the “area under cytotoxicity dose-response curve” value in experiment [1] was less than 0. For the same compound, in experiment [2], the “area under intracellular growth-inhibition dose-response curve” value was 218.
In the case of `CCCc1cc(C(=O)NCc2cccs2)no1`, the “area under cytotoxicity dose-response curve” value in experiment [1] was less than 0. Further, the “area under intracellular growth-inhibition dose-response curve” value in experiment [2] was 192.
Regarding `CN(CC(=O)Nc1ccccc1Br)C(=O)c1ccccc1Sc1ccccc1C#N`, in experiment [1], the “area under cytotoxicity dose-response curve” value amounted to 24.4. Also, the “area under intracellular growth-inhibition dose-response curve” value in experiment [2] amounted to 45.3.
As to `CC1CCN(C(=O)C2CCN(c3ncnc4c3nc3n4CCCCC3)CC2)CC1`, the “area under cytotoxicity dose-response curve” value in experiment [1] amounted to 35.4. Besides, the “area under intracellular growth-inhibition dose-response curve” value in experiment [2] turned out to be 176.
For the compound `CCC(CO)N1C(C)=CC(=Cc2sc3ccccc3[n+]2Cc2ccccc2)C=C1C.[Br-]` (stereo unspecified), in experiment [1], the “area under cytotoxicity dose-response curve” value stood at 54.8. The “area under intracellular growth-inhibition dose-response curve” value in experiment [2] amounted to 176.
For the compound `CC(=O)OCC1=C(C(=O)O)N2C(=O)[C@@H](NC(=O)CSc3ccncc3)[C@H]2SC1.[Na+]`, the “area under cytotoxicity dose-response curve” value in experiment [1] was 52.5. Also, the “area under intracellular growth-inhibition dose-response curve” value in experiment [2] came out at 114.
Regarding `CCC12CN3CCN(CC(C3)/C1=N/NC(=O)c1ccncc1)C2`, in experiment [1], the “area under cytotoxicity dose-response curve” value was determined as 13.3. The “area under intracellular growth-inhibition dose-response curve” value in experiment [2] came to 206.
Take `CC(NC(=S)Nc1ccc(OC(F)F)c(Cl)c1)C(C)(C)C` (stereo unspecified): the “area under cytotoxicity dose-response curve” value in experiment [1] is 12.4. Besides, the “area under intracellular growth-inhibition dose-response curve” value in experiment [2] was determined as 198.
On to `NS(=O)(=O)c1ccc(CCNC(=S)Nc2ccccc2)cc1`, for which, in experiment [1], the “area under cytotoxicity dose-response curve” value is less than 0. For the same compound, the “area under intracellular growth-inhibition dose-response curve” value in experiment [2] came out at 221.
For the compound `O=C(CCc1ccccc1)NC1C2CC3CC(C2)CC1C3` (stereo unspecified), the “area under cytotoxicity dose-response curve” value in experiment [1] amounted to 3.6. For the same compound, the “area under intracellular growth-inhibition dose-response curve” value in experiment [2] worked out at 194.
For `C/C(=N\NC(=O)c1ccncc1)C12CC3CC(CC(C3)C1)C2`, the “area under cytotoxicity dose-response curve” value in experiment [1] was 97.9. In addition, the “area under intracellular growth-inhibition dose-response curve” value in experiment [2] stood at 239.
Regarding `S=C(Nc1ccccc1)Nc1ccc(OCc2ccccc2)cc1`, the “area under cytotoxicity dose-response curve” value in experiment [1] was less than 0. Further, the “area under intracellular growth-inhibition dose-response curve” value in experiment [2] stood at 272.
On the same counts, the results for `COc1ccc(/C=N/NC(=O)c2ccncc2)cc1Cn1nc([N+](=O)[O-])c(Br)c1C` are less than 0 and 273.
On to `C/C(=N\Nc1nc(C)c(C)s1)c1ccc([N+](=O)[O-])cc1`, for which the “area under cytotoxicity dose-response curve” value in experiment [1] was less than 0. The “area under intracellular growth-inhibition dose-response curve” value in experiment [2] came to 222.
Take `Cc1nc2ccccn2c1C(=O)NCc1ccc2c(c1)OCO2`: the “area under cytotoxicity dose-response curve” value in experiment [1] was determined as 38.9. The “area under intracellular growth-inhibition dose-response curve” value in experiment [2] is 203.
On the same counts, the results for `CC(NC(=O)c1ccccc1F)c1ccccc1` (stereo unspecified) are 53.4 and 95.2.
On to `CCC(=O)NC(=S)Nc1ccc(NC(=S)NC(=O)c2ccccc2)cc1`, for which the “area under cytotoxicity dose-response curve” value in experiment [1] amounted to 48.6. In addition, the “area under intracellular growth-inhibition dose-response curve” value in experiment [2] turned out to be 263.
For the compound `O=C(NCc1ccc2c(c1)OCO2)c1ccc(Br)o1`, the “area under cytotoxicity dose-response curve” value in experiment [1] was found to be 76.4. In addition, in experiment [2], the “area under intracellular growth-inhibition dose-response curve” value is 174.
On to `COc1ccc(OCc2n(CC(=O)OC3CC(C)CCC3C(C)C)c3ccccc3[n+]2C)cc1.[Cl-]` (stereo unspecified), for which the “area under cytotoxicity dose-response curve” value in experiment [1] worked out at 58.8. Besides, in experiment [2], the “area under intracellular growth-inhibition dose-response curve” value was determined as 139.
Take `NC(=S)N/N=C1\CCOc2ccc(Cl)cc21`: the “area under cytotoxicity dose-response curve” value in experiment [1] turned out to be 31.5. Besides, the “area under intracellular growth-inhibition dose-response curve” value in experiment [2] is 179.
As to `O=C(COC(=O)Cc1ccc(Cl)cc1)NCc1cccs1`, the “area under cytotoxicity dose-response curve” value in experiment [1] came to 18.4. Further, the “area under intracellular growth-inhibition dose-response curve” value in experiment [2] came to 37.1.
Regarding `CCN1/C(=C/c2ccc3cc(C)ccc3[n+]2C)Sc2ccc3sccc3c21.[I-]`, the “area under cytotoxicity dose-response curve” value in experiment [1] turned out to be 180. The “area under intracellular growth-inhibition dose-response curve” value in experiment [2] was 149.
On the same counts, the results for `O=C(COc1ccccc1)N1CCN(c2ccccc2)CC1` are 10 and 122.
With `O=C(NCc1cccs1)c1ccc(Cl)s1`, in experiment [1], the “area under cytotoxicity dose-response curve” value is 2.8. Moreover, in experiment [2], the “area under intracellular growth-inhibition dose-response curve” value was 212.
`CCCNC(=O)OCC12CC3CC(CC(C3)C1)C2`: in experiment [1], the “area under cytotoxicity dose-response curve” value is 228. In addition, in experiment [2], the “area under intracellular growth-inhibition dose-response curve” value was 237.
Regarding `COc1ccccc1C(CNC(=O)CN1C(=O)NC(C)(c2ccc3ccccc3c2)C1=O)N1CCCC1` (stereo unspecified), in experiment [1], the “area under cytotoxicity dose-response curve” value is 44.4. Also, the “area under intracellular growth-inhibition dose-response curve” value in experiment [2] is 93.4.
On to `COc1cccc2sc(N3CCN(C(=O)c4ccc([N+](=O)[O-])o4)CC3)nc12`, for which, in experiment [1], the “area under cytotoxicity dose-response curve” value came to 57.3. In addition, the “area under intracellular growth-inhibition dose-response curve” value in experiment [2] stood at 6.52.
Turning to `COc1ccc(C(C)NC(=O)c2ccccc2)cc1` (stereo unspecified), the “area under cytotoxicity dose-response curve” value in experiment [1] turned out to be 237. Further, the “area under intracellular growth-inhibition dose-response curve” value in experiment [2] was determined as 222.
As to `CCc1ccc(C(=O)NC2CCCCC2)s1`, the “area under cytotoxicity dose-response curve” value in experiment [1] is 42.5. Besides, the “area under intracellular growth-inhibition dose-response curve” value in experiment [2] was 239.
For `CCN(CC)CCN(C(=O)c1ccc2c(c1)OCCO2)c1nc2cc(C)cc(C)c2s1.Cl`, in that order: 8.98 and 246.
Take `CCC(=O)N1CCN(c2ccc(NC(=S)NC(=O)COc3ccccc3)cc2)CC1`: the “area under cytotoxicity dose-response curve” value in experiment [1] worked out at 76.2. Further, the “area under intracellular growth-inhibition dose-response curve” value in experiment [2] worked out at 194.
As to `Cc1cc(C)n(CC(=O)NC2C(=O)N3C(C(=O)O)=C(CSc4nnc(C)s4)CSC23)n1` (stereo unspecified), the “area under cytotoxicity dose-response curve” value in experiment [1] amounted to 11.2. Also, the “area under intracellular growth-inhibition dose-response curve” value in experiment [2] amounted to 122.
Regarding `COc1ccc(OC)c2sc(N3CCN(C(=O)c4ccc([N+](=O)[O-])s4)CC3)nc12`, the “area under cytotoxicity dose-response curve” value in experiment [1] came to 14.2. Besides, the “area under intracellular growth-inhibition dose-response curve” value in experiment [2] came to 10.8.
`Nc1ccc(C(=O)O)c(O)c1`: in experiment [1], the “area under cytotoxicity dose-response curve” value worked out at 62.3. The “area under intracellular growth-inhibition dose-response curve” value in experiment [2] was 182.
Turning to `Cc1ccc(C(=O)c2oc3ccc(Cl)cc3c2NC(=O)CN2CCN(C)CC2)cc1`, in experiment [1], the “area under cytotoxicity dose-response curve” value worked out at 69.1. Besides, the “area under intracellular growth-inhibition dose-response curve” value in experiment [2] is 131.
On the same counts, the results for `CCc1ccc(NC(=O)NC2CCCCCCC2)cc1` are 85.4 and 120.
As to `C/C(=N/NC(=O)c1ccncc1)c1ccccc1`, the “area under cytotoxicity dose-response curve” value in experiment [1] was less than 0. Also, the “area under intracellular growth-inhibition dose-response curve” value in experiment [2] amounted to 243.
As for `C[C@H]1COc2c(N3CCN(C)CC3)c(F)cc3c(=O)c(C(=O)O)cn1c23`, the “area under cytotoxicity dose-response curve” value in experiment [1] was determined as 137. The “area under intracellular growth-inhibition dose-response curve” value in experiment [2] was 200.
Consider `O=C(/C=C/c1ccccc1Cl)NCc1ccco1`, for which, in experiment [1], the “area under cytotoxicity dose-response curve” value is 79.7. Also, in experiment [2], the “area under intracellular growth-inhibition dose-response curve” value was found to be 174.
On to `Cc1ccc(-[n+]2c(-c3ccc(Br)cc3)cn3c2CCc2ccc4cccnc4c2-3)cc1.[Br-]`, for which, in experiment [1], the “area under cytotoxicity dose-response curve” value is 29. For the same compound, in experiment [2], the “area under intracellular growth-inhibition dose-response curve” value came to 96.2.
For `CC1(C)CC(=O)C=C(Nc2ccc(C(=O)O)c(O)c2)C1`, in that order: less than 0 and 195.
On the same counts, the results for `Cc1ccc(C2(C)NC(=O)N(CC(=O)N3c4ccccc4NC(=O)CC3C)C2=O)cc1` (stereo unspecified) are 3.65 and 36.2.
On to `O=[N+]([O-])c1ccc(CN2CCN(c3ccc(Cl)cc3)CC2)o1`, for which the “area under cytotoxicity dose-response curve” value in experiment [1] amounted to 33.9. In addition, the “area under intracellular growth-inhibition dose-response curve” value in experiment [2] was 222.
As to `COc1ccc(OCC(=O)NC(=S)Nc2ccc(N3CCOCC3)c(Cl)c2)cc1`, the “area under cytotoxicity dose-response curve” value in experiment [1] was found to be 123. Further, the “area under intracellular growth-inhibition dose-response curve” value in experiment [2] was found to be 173.
In the case of `CCOC(=O)Nc1ccc(C(=O)Oc2ccccc2)c(O)c1`, in experiment [1], the “area under cytotoxicity dose-response curve” value came out at 63.8. Further, the “area under intracellular growth-inhibition dose-response curve” value in experiment [2] amounted to 31.9.
Regarding `CCOc1cc(/C=N\Nc2nc(-c3ccc(C)cc3)c(NC(C)=O)s2)ccc1O`, the “area under cytotoxicity dose-response curve” value in experiment [1] is less than 0. The “area under intracellular growth-inhibition dose-response curve” value in experiment [2] is 256.
`O=C(c1ccc([N+](=O)[O-])o1)N1CCN(c2nc3c(Cl)cccc3s2)CC1`: the “area under cytotoxicity dose-response curve” value in experiment [1] came to 124. In addition, the “area under intracellular growth-inhibition dose-response curve” value in experiment [2] is 18.1.
Regarding `Cc1nn(-c2ccccc2)cc1/C=N/NC(N)=S`, the “area under cytotoxicity dose-response curve” value in experiment [1] turned out to be 24.4. For the same compound, the “area under intracellular growth-inhibition dose-response curve” value in experiment [2] was 274.
Consider `CCCC(=O)N1CCN(c2ccc(NC(=O)c3ccc([N+](=O)[O-])o3)cc2)CC1`, for which the “area under cytotoxicity dose-response curve” value in experiment [1] is 129. Further, the “area under intracellular growth-inhibition dose-response curve” value in experiment [2] was 107.
For `CC(C)(C)C(=O)/C=C/Nc1ccccc1O`, in that order: 5.21 and 88.
For `CC1CCN(C(=O)c2ccc(CNc3c(N4CCCC4)c(=O)c3=O)cc2)CC1`, in that order: 78.3 and 166.
